Measured values as given in patent publication US20240124460A1, “METHODS AND COMPOSITIONS FOR TARGETED PROTEIN DEGRADATION” (Ranok Therapeutics (Hangzhou) Co. Ltd., priority 2020, published 2024).
Where two headings read alike, the source gives them in different places.

Tests used:
[1] = test system: MV-4-11 human acute myeloid leukemia; assay: MV-4-11 CCK-8 proliferation assay; type: cell-based; conditions: MV-4-11 cells, 72 hr
Method: (§1) The following cancer cell lines were employed: A549 human lung carcinoma (ATCC, #CCL-185); BT-474 human breast carcinoma (ATCC, #HTB-20); MDA-MB-231 human breast adenocarcinoma (ATCC, #CRM−HTB-26); MDA-MB-468 human breast adenocarcinoma (ATCC, #HTB-132); MV-4-11 human acute myeloid leukemia (ATCC, #CRL-9591); and U-87 MG human glioblastoma (ATCC, #HTB-14). Cell lines were cultured essentially according to ATCC recommendations.
(§2) 3-fold serial dilutions of each test compound were prepared ranging from 20 μM to 1.02 nM.
(§3) % Inhibition=100−(D−B)/(S−B)*100%. • S: Absorbance of cells treated with DMSO • D: Absorbance of compound-treated cells • B: Absorbance of medium with DMSO without cells

[2] = test system: U-87 MG human glioblastoma; assay: U87 MG CCK-8 proliferation assay; type: cell-based; conditions: U-87 MG cells, read-out: U87MG CCK-8
Method: as §1, §2, §3

Compound	EC50 ([1]; Homo sapiens, MV4-11)	EC50 ([2]; Homo sapiens, U-87 MG, 72 h)	other results
CCOc1cc(N2CCC(C(=O)NCCOCCOc3ccc(-n4c(O)nnc4-c4cc(CC)c(O)cc4O)cc3)CC2)ccc1Nc1ncc2c(n1)N(C)c1ccccc1C(=O)N2C [Compound 014, 1-(4-((5,11-dimethyl-6-oxo-6,11-dihydro-5H-benzo[e]pyrimido[5,4-b][1,4]diazepin-2-yl)amino)-3-ethoxyphenyl)-N-(2-(2-(4-(3-(5-ethyl-2,4-dihydroxyphenyl)-5-hydroxy-4H-1,2,4-triazol-4-yl)phenoxy)ethoxy)ethyl)piperidine-4-carboxamide]	100 to 1000 nM	100 to 1000 nM	–
CCOc1cc(N2CCC(C(=O)N3CCC(N4CCN(Cc5ccc(-n6c(O)nnc6-c6cc(C(C)C)c(O)cc6O)cc5F)CC4)CC3)CC2)ccc1Nc1ncc2c(n1)N(C)c1ccccc1C(=O)N2C [Compound 033, 2-((4-(4-(4-(4-(4-(3-(2,4-dihydroxy-5-isopropylphenyl)-5-hydroxy-4H-1,2,4-triazol-4-yl)-2-fluorobenzyl)piperazin-1-yl)piperidine-1-carbonyl)piperidin-1-yl)-2-ethoxyphenyl)amino)-5,11-dimethyl-5,11-dihydro-6H-benzo[e]pyrimido[5,4-b][1,4]diazepin-6-one]	–	100 to 1000 nM	–
CCCc1cc(-c2nnc(O)n2-c2ccc(CN3CCN(C(=O)C4CCN(c5ccc(Nc6ncc7c(n6)N(C)c6ccccc6C(=O)N7C)c(OCC)c5)CC4)CC3)cc2)c(O)cc1O [Compound 050, 2-((4-(4-(4-(4-(3-(2,4-dihydroxy-5-propylphenyl)-5-hydroxy-4H-1,2,4-triazol-4-yl)benzyl)piperazine-1-carbonyl)piperidin-1-yl)-2-ethoxyphenyl)amino)-5,11-dimethyl-5,11-dihydro-6H-benzo[e]pyrimido[5,4-b][1,4]diazepin-6-one]	< 100 nM	100 to 1000 nM	–
CCOc1cc(N2CCC(C(=O)NCCOCCOCCOc3ccc(Nc4cc(-n5nc(C(F)(F)F)c6c5CC(C)(C)CC6=O)ccc4C(N)=O)cc3)CC2)ccc1Nc1ncc2c(n1)N(C)c1ccccc1C(=O)N2C [Compound 131, N-(2-(2-(2-(4-((2-carbamoyl-5-(6,6-dimethyl-4-oxo-3-(trifluoromethyl)-4,5,6,7-tetrahydro-1H-indazol-1-yl)phenyl)amino)phenoxy)ethoxy)ethoxy)ethyl)-1-(4-((5,11-dimethyl-6-oxo-6,11-dihydro-5H-benzo[e]pyrimido[5,4-b][1,4]diazepin-2-yl)amino)-3-ethoxyphenyl)piperidine-4-carboxamide]	100 to 1000 nM	> 1000 nM	–
CCOc1cc(N2CCC(C(=O)N3CCC(Oc4ccc(-c5ccc(NC(=O)c6ccc(OC)c(-c7cccc(OC)c7)c6)cc5)cc4)CC3)CC2)ccc1Nc1ncc2c(n1)N(C)c1ccccc1C(=O)N2C [Compound 143, N-(4′-((1-(1-(4-((5,11-dimethyl-6-oxo-6,11-dihydro-5H-benzo[e]pyrimido[5,4-b][1,4]diazepin-2-yl)amino)-3-ethoxyphenyl)piperidine-4-carbonyl)piperidin-4-yl)oxy)-[1,1′-biphenyl]-4-yl)-3′,6-dimethoxy-[1,1′-biphenyl]-3-carboxamide]	> 1000 nM	> 1000 nM	–
CCOc1cc(N2CCC(C(=O)N3CCC(CN4CCC(Oc5ccc(-c6ccc(NC(=O)c7ccc(OC)c(-c8cccc(OC)c8)c7)cc6)cc5)CC4)CC3)CC2)ccc1Nc1ncc2c(n1)N(S(C)(=O)=O)c1ccccc1C(=O)N2C [Compound 156, N-(4′-((1-((1-(1-(3-ethoxy-4-((5-methyl-11-(methylsulfonyl)-6-oxo-6,11-dihydro-5H-benzo[e]pyrimido[5,4-b][1,4]diazepin-2-yl)amino)phenyl)piperidine-4-carbonyl)piperidin-4-yl)methyl)piperidin-4-yl)oxy)-[1,1′-biphenyl]-4-yl)-3′,6-dimethoxy-[1,1′-biphenyl]-3-carboxamide]	> 1000 nM	–	–
CCOc1cc(N2CCC(C(=O)NCCCOc3ccc(-c4ccc(NC(=O)c5ccc(OC)c(-c6cccc(OC)c6)c5)cc4)c(OCCCN(C)C)c3)CC2)ccc1Nc1ncc2c(n1)N(S(C)(=O)=O)c1ccccc1C(=O)N2C [Compound 157, N-(3-((4′-(3′,6-dimethoxy-[1,1′-biphenyl]-3-carboxamido)-2-(3-(dimethylamino)propoxy)-[1,1′-biphenyl]-4-yl)oxy)propyl)-1-(3-ethoxy-4-((5-methyl-11-(methylsulfonyl)-6-oxo-6,11-dihydro-5H-benzo[e]pyrimido[5,4-b][1,4]diazepin-2-yl)amino)phenyl)piperidine-4-carboxamide]	> 1000 nM	–	–
CCOc1cc(N2CCC(C(=O)N3CCC(CN4CCN(Cc5ccc(-n6c(C(=O)N[C@H](C)C(F)(F)F)nnc6-c6cc(CC)c(O)cc6O)cc5)CC4)CC3)CC2)ccc1Nc1ncc2c(n1)N(S(C)(=O)=O)c1ccccc1C(=O)N2C [Compound 176, (R)-4-(4-((4-((1-(1-(3-ethoxy-4-((5-methyl-11-(methylsulfonyl)-6-oxo-6,11-dihydro-5H-benzo[e]pyrimido[5,4-b][1,4]diazepin-2-yl)amino)phenyl)piperidine-4-carbonyl)piperidin-4-yl)methyl)piperazin-1-yl)methyl)phenyl)-5-(5-ethyl-2,4-dihydroxyphenyl)-N-(1,1,1-trifluoropropan-2-yl)-4H-1,2,4-triazole-3-carboxamide]	–	–	EC50 ([2]; 72 hr): 100 to 1000 nM
CCOc1cc(N2CCC(C(=O)N3CCC(CN4CCN(Cc5ccc(-n6c(C(=O)N[C@@H](C)C(F)(F)F)nnc6-c6cc(CC)c(O)cc6O)cc5)CC4)CC3)CC2)ccc1Nc1ncc2c(n1)N(S(C)(=O)=O)c1ccccc1C(=O)N2C [Compound 177, (S)-4-(4-((4-((1-(1-(3-ethoxy-4-((5-methyl-11-(methylsulfonyl)-6-oxo-6,11-dihydro-5H-benzo[e]pyrimido[5,4-b][1,4]diazepin-2-yl)amino)phenyl)piperidine-4-carbonyl)piperidin-4-yl)methyl)piperazin-1-yl)methyl)phenyl)-5-(5-ethyl-2,4-dihydroxyphenyl)-N-(1,1,1-trifluoropropan-2-yl)-4H-1,2,4-triazole-3-carboxamide]	–	–	EC50 [1]: < 100 nM

The next lines start with results.

EC50 ([1]; Homo sapiens, MV4-11)	EC50 ([2]; Homo sapiens, U-87 MG, 72 h)	Compound	other results
–	> 1000 nM	CCOc1cc(N2CCC(C(=O)N3CCC(COc4ccc(-c5ccc(NC(=O)c6ccc(OC)c(-c7cccc(OC)c7)c6)cc5)c(OCCCN(C)C)c4)CC3)CC2)ccc1Nc1ncc2c(n1)N(C)c1ccccc1C(=O)N2C [Compound 151, N-(4′-((1-(1-(4-((5,11-dimethyl-6-oxo-6,11-dihydro-5H-benzo[e]pyrimido[5,4-b][1,4]diazepin-2-yl)amino)-3-ethoxyphenyl)piperidine-4-carbonyl)piperidin-4-yl)methoxy)-2′-(3-(dimethylamino)propoxy)-[1,1′-biphenyl]-4-yl)-3′,6-dimethoxy-[1,1′-biphenyl]-3-carboxamide]	–
> 1000 nM	–	CCOc1cc(N2CCC(C(=O)N3CCC(CN4CCC(Oc5ccc(-c6ccc(NC(=O)c7ccc(OC)c(-c8cccc(OC)c8)c7)cc6)c(OCCCN(C)C)c5)CC4)CC3)CC2)ccc1Nc1ncc2c(n1)N(C)c1ccccc1C(=O)N2C [Compound 153, N-(4′-((1-((1-(1-(4-((5,11-dimethyl-6-oxo-6,11-dihydro-5H-benzo[e]pyrimido[5,4-b][1,4]diazepin-2-yl)amino)-3-ethoxyphenyl)piperidine-4-carbonyl)piperidin-4-yl)methyl)piperidin-4-yl)oxy)-2′-(3-(dimethylamino)propoxy)-[1,1′-biphenyl]-4-yl)-3′,6-dimethoxy-[1,1′-biphenyl]-3-carboxamide]	–
> 1000 nM	–	CCOc1cc(N2CCC(C(=O)N3CCC(CN4CCC(Oc5ccc(-c6ccc(NC(=O)c7ccc(OC)c(-c8cccc(OC)c8)c7)cc6)cc5)CC4)CC3)CC2)ccc1Nc1ncc2c(n1)N(C)c1ccccc1C(=O)N2C [Compound 154, N-(4′-((1-((1-(1-(4-((5,11-dimethyl-6-oxo-6,11-dihydro-5H-benzo[e]pyrimido[5,4-b][1,4]diazepin-2-yl)amino)-3-ethoxyphenyl)piperidine-4-carbonyl)piperidin-4-yl)methyl)piperidin-4-yl)oxy)-[1,1′-biphenyl]-4-yl)-3′,6-dimethoxy-[1,1′-biphenyl]-3-carboxamide]	–
> 1000 nM	–	CCOc1cc(N2CCC(C(=O)N3CCC(CN4CCC(Oc5ccc(-c6ccc(NC(=O)c7ccc(OC)c(-c8cccc(OC)c8)c7)cc6)c(OCCCN(C)C)c5)CC4)CC3)CC2)ccc1Nc1ncc2c(n1)N(S(C)(=O)=O)c1ccccc1C(=O)N2C [Compound 155, N-(2′-(3-(dimethylamino)propoxy)-4′-((1-((1-(1-(3-ethoxy-4-((5-methyl-11-(methylsulfonyl)-6-oxo-6,11-dihydro-5H-benzo[e]pyrimido[5,4-b][1,4]diazepin-2-yl)amino)phenyl)piperidine-4-carbonyl)piperidin-4-yl)methyl)piperidin-4-yl)oxy)-[1,1′-biphenyl]-4-yl)-3′,6-dimethoxy-[1,1′-biphenyl]-3-carboxamide]	–
> 1000 nM	–	CCOc1cc(N2CCC(C(=O)N3CCC(COc4ccc(-c5ccc(NC(=O)c6ccc(OC)c(-c7cccc(OC)c7)c6)cc5)c(OCCCN(C)C)c4)CC3)CC2)ccc1Nc1ncc2c(n1)N(S(C)(=O)=O)c1ccccc1C(=O)N2C [Compound 158, N-(2′-(3-(dimethylamino)propoxy)-4′-((1-(1-(3-ethoxy-4-((5-methyl-11-(methylsulfonyl)-6-oxo-6,11-dihydro-5H-benzo[e]pyrimido[5,4-b][1,4]diazepin-2-yl)amino)phenyl)piperidine-4-carbonyl)piperidin-4-yl)methoxy)-[1,1′-biphenyl]-4-yl)-3′,6-dimethoxy-[1,1′-biphenyl]-3-carboxamide]	–
